pEC50: −log10 of the molar value. Like-named read-outs stand apart in the source and are kept apart here.
Legend:
Assay in all cases: microbe, parasite or virus in culture
Type in all cases: cell-based
[1] = tested on: HCV 1a RLuc cells (dicistronic genotype 1a H77 replicon, RLuc reporter); conditions: read-out: 1a
In short: (§1)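 Renilla luciferase HCV replicon cells: dicistronic 1b Con1, 1a H77 or 2a JFH-1 replicons, or a JFH-1 chimera carrying J6 NS5A (M31 present). Compound in DMSO serial dilutions, 72 h incubation, then lysis and luciferase read. EC50 by non-linear regression.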

[2] = tested on: HCV 1b RLuc cells (dicistronic genotype 1b Con1 replicon, RLuc reporter); conditions: for EC50: Hepatitis C virus, read-out: 1b (nM)
In short: as §1

[3] = tested on: HCV 2a JFH-1 Rluc cells (dicistronic genotype 2a JFH-1 replicon, RLuc reporter); conditions: genotype 2a JFH-1 replicon, read-out: 2a JFH
In short: as §1

[4] = tested on: HCV 3a RLuc cells (NS5A chimeric genotype 1b Con1 replicon with consensus genotype 3a NS5A gene)
In short: (§2)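 Replicon cells stably carrying the listed RLuc-encoding dicistronic replicons were seeded and treated with DMSO serial dilutions of compound (10 mM stocks) diluted into culture medium. After 72 h, cells were lysed and Renilla luciferase activity measured. EC50 was derived by non-linear regression.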

[5] = tested on: HCV 4a Rluc cells (NS5A chimeric genotype 1b Con1 replicon with genotype 4a NS5A gene); conditions: read-out: 4a
In short: as §2

[6] = Hepatitis C virus, genotype 1a H77 replicon, RLuc reporter
[7] = Hepatitis C virus, RLuc reporter
[8] = Hepatitis C virus, read-out: 3a, genotype 3a NS5A chimeric 1b Con1 replicon
[9] = Hepatitis C virus, genotype 1a replicon
[10] = Hepatitis C virus, read-out: 3a, genotype 3a replicon
[11] = Hepatitis C virus, 72 h, Table 2, genotype 1a H77 replicon, 72 hours
[12] = Hepatitis C virus, 72 h, Table 2, 72 hours
[13] = Hepatitis C virus, read-out: 3a, Table 2, genotype 3a NS5A chimeric replicon

COC(=O)N[C@H](C(=O)N1C[C@@H](O)C[C@H]1c1ncc(-c2ccc3cc(-c4ccc(-c5cnc([C@@H]6CCCN6C(=O)[C@H](NC(=O)OC)c6ccccc6)[nH]5)cc4)ccc3c2)[nH]1)C(C)C [Example 223]
pEC50 [1, 6]: 7.36 to 9.00 | EC50 [2]: 0.022 nM | pEC50 [3, 7]: 9.00 to 12.00 | pEC50 [4, 8]: 8.30 to 9.00 | pEC50 ([5]; Hepatitis C virus): 9.00 to 12.00

COC(=O)N[C@H](C(=O)N1CCC[C@H]1c1nc2ccc3cc(-c4ccc(-c5cnc([C@@H]6CCCN6C(=O)[C@@H](NC(=O)OC)C6CCOCC6)[nH]5)cc4C#CC4CC4)ccc3c2[nH]1)C(C)C [Example 350]
pEC50 [1, 9]: 9.00 to 12.00 | EC50 [2]: 0.02 nM | pEC50 ([3]; Hepatitis C virus): 9.00 to 12.00 | pEC50 [4, 10]: 9.00 to 12.00 | pEC50 ([5]; Hepatitis C virus): 9.00 to 12.00

COC(=O)N[C@H](C(=O)N1CCC[C@H]1c1ncc(-c2ccc3cc(-c4ccc5c(ccc6nc([C@@H]7[C@H]8CC[C@H](C8)N7C(=O)[C@H](NC(=O)OC)c7ccccc7)[nH]c65)c4)ccc3c2)[nH]1)C(C)C [Example 326]
pEC50 [1, 9]: 9.00 to 12.00 | EC50 [2]: 0.005 nM | pEC50 ([3]; Hepatitis C virus): 9.00 to 12.00 | pEC50 [4, 10]: 8.30 to 9.00 | pEC50 ([5]; Hepatitis C virus): 9.00 to 12.00

COC(=O)NC(C(=O)N[C@H](c1ncc(-c2ccc3c(c2)C(F)(F)c2cc(-c4ccc5nc([C@@H]6CCCN6C(=O)[C@@H](NC(=O)OC)[C@@H](C)OC)[nH]c5c4)ccc2-3)[nH]1)C(C)C)C(C)C (stereo partly shown) [Example 248]
pEC50 [1, 6]: 7.36 to 9.00 | EC50 [2]: 0.024 nM | pEC50 [3, 7]: 7.36 to 9.00 | pEC50 [4, 8]: < 8.30 | pEC50 ([5]; Hepatitis C virus): 9.00 to 12.00

COC(=O)NC(C(=O)N1CCC[C@H]1c1ncc(-c2ccc(-c3ccc4c(ccc5nc([C@@H]6[C@H]7CC[C@H](C7)N6C(=O)[C@@H](NC(=O)OC)C6CCOCC6)[nH]c54)c3)cc2)[nH]1)C(C)C (stereo partly shown) [Example 67]
pEC50 [1, 11]: 9.00 to 12.00 | EC50 ([2]; 72 h): 0.044 nM | pEC50 [3, 12]: 9.00 to 12.00 | pEC50 [4, 13]: 8.30 to 9.00 | pEC50 ([5]; Hepatitis C virus): 9.00 to 12.00

CC#Cc1cc(-c2cnc([C@@H]3CCCN3C(=O)[C@@H](NC(=O)OC)C(C)C)[nH]2)ccc1-c1ccc(-c2cnc([C@@H]3CCCN3C(=O)[C@@H](NC(=O)OC)C(C)C)[nH]2)cc1 [Example 342]
pEC50 [1, 9]: 9.00 to 12.00 | EC50 [2]: 0.01 nM | pEC50 ([3]; Hepatitis C virus): 9.00 to 12.00 | pEC50 [4, 10]: 9.00 to 12.00 | pEC50 ([5]; Hepatitis C virus): 9.00 to 12.00

COC(=O)N[C@H](C(=O)N1[C@@H]2CC[C@@H](C2)[C@H]1c1ncc(-c2ccc3cc(-c4ccc5c(ccc6nc([C@@H]7CCCN7C(=O)[C@H](NC(=O)OC)c7ccccc7)[nH]c65)c4)ccc3c2)[nH]1)[C@@H](C)OC [Example 102]
pEC50 [1, 11]: 9.00 to 12.00 | EC50 ([2]; 72 h): 0.009 nM | pEC50 [3, 12]: 9.00 to 12.00 | pEC50 [4, 13]: 9.00 to 12.00 | pEC50 ([5]; Hepatitis C virus): 9.00 to 12.00

COC(=O)N[C@H](C(=O)N1CCC[C@H]1c1ncc(-c2ccc3cc(-c4ccc5c(c4)CCc4nc([C@@H]6CCCN6C(=O)[C@@H](NC(=O)OC)C6CCOCC6)[nH]c4-5)ccc3c2)[nH]1)C(C)C [Example 222]
pEC50 ([1]; genotype 1a H77 replicon, RLuc reporter): 9.00 to 12.00 | pEC50 ([2]; read-out: 1b): 10.64 | pEC50 ([3]; RLuc reporter): 9.00 to 12.00 | pEC50 ([4]; read-out: 3a, genotype 3a NS5A chimeric 1b Con1 replicon): 9.00 to 12.00 | pEC50 ([5]; genotype 4a NS5A chimeric 1b Con1 replicon): 9.00 to 12.00

COC(=O)N[C@H](C(=O)N1CCC[C@H]1c1ncc(-c2ccc3cc(-c4ccc5c(ccc6nc([C@@H]7[C@H]8CC[C@H](C8)N7C(=O)[C@H](NC(=O)OC)c7ccccc7)[nH]c65)c4)ccc3c2)[nH]1)C1CCOCC1 [Example 327]
pEC50 [1, 9]: 9.00 to 12.00 | EC50 [2]: 0.011 nM | pEC50 ([3]; Hepatitis C virus): 9.00 to 12.00 | pEC50 [4, 10]: 9.00 to 12.00 | pEC50 ([5]; Hepatitis C virus): 9.00 to 12.00

COC(=O)N[C@H](C(=O)N1CCC[C@H]1c1ncc(-c2ccc3c(c2)COc2c-3ccc3cc(-c4cnc([C@@H]5CCCN5C(=O)[C@@H](NC(=O)OC)[C@@H](C)OC)[nH]4)ccc23)[nH]1)C1CCOCC1 [Example 15]
pEC50 ([1]; Hepatitis C virus, 72 h, Table 1, genotype 1a H77 replicon, 72 hours): 9.00 to 12.00 | EC50 ([2]; 72 h): 0.026 nM | pEC50 ([3]; Hepatitis C virus, 72 h, Table 1, 72 hours): 9.00 to 12.00 | pEC50 ([4]; Hepatitis C virus, read-out: 3a, Table 1, genotype 3a NS5A chimeric replicon): 9.00 to 12.00 | pEC50 ([5]; Hepatitis C virus): 9.00 to 12.00

COC(=O)N[C@H](C(=O)N1CCC[C@H]1c1ncc(-c2ccc3c(c2)CCc2cc(-c4ccc5nc([C@@H]6[C@H]7CC[C@H](C7)N6C(=O)[C@@H](NC(=O)OC)[C@@H](C)OC)[nH]c5c4)ccc2-3)[nH]1)[C@@H](C)OC [Example 76]
pEC50 [1, 11]: 9.00 to 12.00 | EC50 ([2]; 72 h): 0.01 nM | pEC50 [3, 12]: 7.36 to 9.00 | pEC50 [4, 13]: 8.30 to 9.00 | pEC50 ([5]; Hepatitis C virus): 9.00 to 12.00

COC(=O)N[C@H](C(=O)N1CCC[C@H]1c1ncc(-c2ccc(-c3ccc(-c4cnc([C@@H]5Cc6ccccc6N5C(=O)[C@@H](NC(=O)OC)C(C)C)[nH]4)cc3)cc2)[nH]1)C(C)C [Example 266]
pEC50 [1, 6]: 9.00 to 12.00 | EC50 [2]: 0.009 nM | pEC50 [3, 7]: 7.36 to 9.00 | pEC50 [4, 8]: 8.30 to 9.00 | pEC50 ([5]; Hepatitis C virus): 9.00 to 12.00

COC(=O)NC(C(=O)N1CCC[C@H]1c1ncc(-c2ccc(-c3ccc4c(ccc5nc([C@@H]6[C@H]7CC[C@H](C7)N6C(=O)[C@@H](NC(=O)OC)C(C)C)[nH]c54)c3)cc2)[nH]1)C1CCOCC1 (stereo partly shown) [Example 69]
pEC50 [1, 11]: 9.00 to 12.00 | EC50 ([2]; 72 h): 0.035 nM | pEC50 [3, 12]: 9.00 to 12.00 | pEC50 [4, 13]: 9.00 to 12.00 | pEC50 ([5]; Hepatitis C virus): 9.00 to 12.00

COC(=O)N[C@H](C(=O)N1CCC[C@H]1c1nc2c([nH]1)-c1ccc(-c3ccc4cc(-c5cnc([C@@H]6CCCN6C(=O)[C@H](NC(=O)CN6CCOCC6)c6ccccc6)[nH]5)ccc4c3)cc1CC2)C(C)C [Example 245]
pEC50 [1, 6]: 9.00 to 12.00 | EC50 [2]: 0.017 nM | pEC50 [3, 7]: 9.00 to 12.00 | pEC50 [4, 8]: 9.00 to 12.00 | pEC50 ([5]; Hepatitis C virus): 9.00 to 12.00

COC(=O)N[C@H](C(=O)N1CCC[C@H]1c1ncc(-c2ccc3c(c2)CCc2cc(-c4cnc([C@@H]5[C@H]6CC[C@H](C6)N5C(=O)[C@@H](NC(=O)OC)C5CCOCC5)[nH]4)ccc2-3)[nH]1)C1CCOCC1 [Example 79]
pEC50 [1, 11]: 9.00 to 12.00 | EC50 ([2]; 72 h): 0.231 nM | pEC50 [3, 12]: 9.00 to 12.00 | pEC50 [4, 13]: 9.00 to 12.00 | pEC50 ([5]; Hepatitis C virus): 9.00 to 12.00

COC(=O)N[C@H](C(=O)N1[C@@H]2CC[C@@H](C2)[C@H]1c1ncc(-c2ccc(-c3ccc4cc(-c5cnc([C@@H]6CCCN6C(=O)[C@H](NC(=O)OC)c6ccccc6)[nH]5)ccc4c3)cc2)[nH]1)[C@@H](C)OC [Example 72]
pEC50 [1, 11]: 9.00 to 12.00 | EC50 ([2]; 72 h): 0.006 nM | pEC50 [3, 12]: 9.00 to 12.00 | pEC50 [4, 13]: 9.00 to 12.00 | pEC50 ([5]; Hepatitis C virus): 9.00 to 12.00

COC(=O)N[C@H](C(=O)N1CCC[C@H]1c1ncc(-c2cc3c4c(c2)OCc2cc(-c5cnc([C@@H]6CCCN6C(=O)[C@@H](NC(=O)OC)C6CCCC6)[nH]5)cc(c2-4)OC3)[nH]1)C1CCCC1 [Example 377]
pEC50 [1, 9]: 9.00 to 12.00 | EC50 [2]: 0.022 nM | pEC50 ([3]; Hepatitis C virus): 9.00 to 12.00 | pEC50 [4, 10]: 9.00 to 12.00 | pEC50 ([5]; Hepatitis C virus): 9.00 to 12.00

COC(=O)N[C@H](C(=O)N1CCC[C@H]1c1nc(-c2ccc3c(c2)C(F)(F)c2cc(-c4ccc5nc([C@@H]6CCCN6C(=O)[C@@H](NC(=O)OC)C6CCOCC6)[nH]c5c4)ccc2-3)c[nH]1)C(C)C [Example 220]
pEC50 [1, 6]: 9.00 to 12.00 | EC50 [2]: 0.011 nM | pEC50 [3, 7]: 9.00 to 12.00 | pEC50 [4, 8]: 8.30 to 9.00 | pEC50 ([5]; Hepatitis C virus): 9.00 to 12.00

COC(=O)N[C@H](C(=O)N1CCC[C@H]1c1nc(Cl)c(-c2ccc(-c3ccc(-c4[nH]c([C@@H]5CCCN5C(=O)[C@@H](NC(=O)OC)C5CCOCC5)nc4Cl)cc3)cc2)[nH]1)C1CCOCC1 [Example 353]
pEC50 [1, 9]: 9.00 to 12.00 | EC50 [2]: 0.493 nM | pEC50 ([3]; Hepatitis C virus): 9.00 to 12.00 | pEC50 [4, 10]: 9.00 to 12.00 | pEC50 ([5]; Hepatitis C virus): 9.00 to 12.00

COC(=O)N[C@H](C(=O)N1CCC[C@H]1c1ncc(-c2ccc(-c3ccc4c(c3)c3ccccc3c3nc([C@@H]5CCCN5C(=O)[C@@H](NC(=O)OC)C(C)C)[nH]c43)cc2)[nH]1)C(C)C [Example 299]
pEC50 [1, 9]: 7.36 to 9.00 | EC50 [2]: 0.017 nM | pEC50 ([3]; Hepatitis C virus): 7.36 to 9.00 | pEC50 [4, 10]: < 8.30 | pEC50 ([5]; Hepatitis C virus): 9.00 to 12.00

Reference: patent US10344019B2 (priority 2010, dated 2019)
